{"source": "DBAASP", "test_in_all_cases": "≥ marks a high value that may be exact or a test limit, other limits are often not marked, values filed in µg/mL are converted to µM", "key": {"[1]": {"tested_on": "Acinetobacter baumannii AB1"}, "[2]": {"tested_on": "Acinetobacter baumannii AB2"}, "[3]": {"tested_on": "Acinetobacter baumannii AB3"}, "[4]": {"tested_on": "Klebsiella pneumoniae KP1"}, "[5]": {"tested_on": "Klebsiella pneumoniae KP2"}, "[6]": {"tested_on": "Klebsiella pneumoniae KP3"}, "[7]": {"tested_on": "Klebsiella pneumoniae KP4"}, "[8]": {"tested_on": "Pseudomonas aeruginosa PAO1"}, "[9]": {"tested_on": "Pseudomonas aeruginosa TRPA 108"}, "[10]": {"tested_on": "Pseudomonas aeruginosa TRPA 111"}, "[11]": {"tested_on": "Staphylococcus aureus 4003"}, "[12]": {"tested_on": "Staphylococcus aureus USA 100"}, "[13]": {"tested_on": "Staphylococcus aureus USA 300"}, "[14]": {"tested_on": "Acinetobacter baumannii ATCC 19606"}, "[15]": {"tested_on": "Candida albicans ATCC 90028"}, "[16]": {"tested_on": "Cryptococcus neoformans ATCC 208821"}, "[17]": {"tested_on": "Escherichia coli ATCC 25922"}, "[18]": {"tested_on": "Klebsiella pneumoniae ATCC 700603"}, "[19]": {"tested_on": "Pseudomonas aeruginosa ATCC 27853"}, "[20]": {"tested_on": "Staphylococcus aureus ATCC 43300"}, "[21]": {"tested_on": "Candida albicans"}, "[22]": {"tested_on": "Staphylococcus aureus ATCC 49476"}, "[23]": {"tested_on": "Staphylococcus aureus MR"}, "[24]": {"tested_on": "Escherichia coli"}, "[25]": {"tested_on": "Salmonella enterica subsp. enterica serovar Enteritidis"}, "[26]": {"tested_on": "Salmonella sp."}, "[27]": {"tested_on": "Staphylococcus aureus ATCC 29213"}, "[28]": {"tested_on": "Yersinia enterocolitica"}}, "note": "Several values for one entry are separate records, joined by “and”; a condition that tells them apart may be missing. Equal values may be shown once.", "data": [{"smiles": "CC(C)[C@H](NC(=O)[C@H](Cc1c[nH]c2ccccc12)NC(=O)[C@H](CCCN=C(N)N)NC(=O)[C@H](CCCN=C(N)N)NC(=O)[C@@H](NC(=O)[C@@H](NC(=O)[C@H](CCCN=C(N)N)NC(=O)[C@@H](NC(=O)[C@@H](NC(=O)[C@H](CCCN=C(N)N)NC(=O)[C@H](CCCN=C(N)N)NC(=O)[C@@H](NC(=O)[C@H](Cc1c[nH]c2ccccc12)NC(=O)[C@H](CCCN=C(N)N)NC(=O)[C@H](CCCN=C(N)N)NC(=O)[C@@H](NC(=O)[C@H](CCCN=C(N)N)NC(=O)[C@H](CCCN=C(N)N)NC(=O)[C@@H](NC(=O)[C@H](Cc1c[nH]c2ccccc12)NC(=O)[C@H](CCCN=C(N)N)NC(=O)[C@@H](N)CCCN=C(N)N)C(C)C)C(C)C)C(C)C)C(C)C)C(C)C)C(C)C)C(C)C)C(=O)N[C@@H](CCCN=C(N)N)C(=O)N[C@@H](CCCN=C(N)N)C(=O)O", "note": "[RRWVRRVRRWVRRVVRVVRRWVRR]", "values": [{"measurement": "MIC", "setting": "[1]", "value": 1.47, "unit": "µM"}, {"measurement": "MIC", "setting": "[2]", "value": 3.24, "unit": "µM"}, {"measurement": "MIC", "setting": "[3]", "value": 1.76, "unit": "µM"}, {"measurement": "MIC", "setting": "[4]", "value": 2.94, "unit": "µM"}, {"measurement": "MIC", "setting": "[5]", "value": 9.41, "unit": "µM"}, {"measurement": "MIC", "setting": "[6]", "value": 2.94, "unit": "µM"}, {"measurement": "MIC", "setting": "[7]", "value": 4.71, "unit": "µM"}, {"measurement": "MIC", "setting": "[8]", "value": "1.76 µM and 3.5 µM"}, {"measurement": "MIC", "setting": "[9]", "value": 1.18, "unit": "µM"}, {"measurement": "MIC", "setting": "[10]", "value": 0.882, "unit": "µM"}, {"measurement": "MIC", "setting": "[11]", "value": 1.47, "unit": "µM"}, {"measurement": "MIC", "setting": "[12]", "value": 1.76, "unit": "µM"}, {"measurement": "MIC", "setting": "[13]", "value": "1.76 µM and 3.2 µM"}]}, {"smiles": "NC(=O)CC[C@H](NC(=O)[C@H](CCCN=C(N)N)NC(=O)[C@H](CCCN=C(N)N)NC(=O)[C@H](CS)NC(=O)[C@H](CCC(N)=O)NC(=O)[C@H](Cc1cnc[nH]1)NC(=O)[C@H](CO)NC(=O)[C@H](CCCN=C(N)N)NC(=O)[C@H](Cc1ccccc1)NC(=O)[C@H](Cc1cnc[nH]1)NC(=O)[C@H](CCCN=C(N)N)NC(=O)[C@H](Cc1cnc[nH]1)NC(=O)[C@H](Cc1cnc[nH]1)NC(=O)[C@@H](N)CO)C(=O)N[C@@H](CCCN=C(N)N)C(=O)N[C@@H](CO)C(=O)N[C@@H](CC(N)=O)C(=O)N[C@@H](CO)C(=O)N[C@@H](CS)C(=O)N[C@@H](CC(=O)O)C(=O)N[C@@H](CCCN=C(N)N)C(=O)O", "note": "[SHHRHFRSHQCRRQRSNSCDR]", "values": [{"measurement": "MIC", "setting": "[14]", "value": "> 11.9", "unit": "µM"}, {"measurement": "MIC", "setting": "[15]", "value": 11.9, "unit": "µM"}, {"measurement": "MIC", "setting": "[16]", "value": 1.49, "unit": "µM"}, {"measurement": "MIC", "setting": "[17]", "value": "> 11.9", "unit": "µM"}, {"measurement": "MIC", "setting": "[18]", "value": "> 11.9", "unit": "µM"}, {"measurement": "MIC", "setting": "[19]", "value": "> 11.9", "unit": "µM"}, {"measurement": "MIC", "setting": "[20]", "value": "> 11.9", "unit": "µM"}]}, {"smiles": "CC[C@H](C)[C@H](NC(=O)[C@H](C)NC(=O)[C@H](CCCCN)NC(=O)CNC(=O)[C@H](C)NC(=O)[C@H](CO)NC(=O)[C@H](Cc1ccccc1)NC(=O)[C@H](CC(C)C)NC(=O)CNC(=O)CNC(=O)[C@@H](NC(=O)[C@@H](NC(=O)[C@H](Cc1cnc[nH]1)NC(=O)[C@@H](N)Cc1cnc[nH]1)[C@@H](C)CC)[C@@H](C)CC)C(=O)N[C@@H](Cc1cnc[nH]1)C(=O)N[C@@H](CCCN=C(N)N)C(=O)N[C@@H](CC(C)C)C(=O)N[C@H](C(=O)N[C@@H](CCCN=C(N)N)C(=O)N[C@@H](CCCN=C(N)N)C(=O)N[C@@H](CCCN=C(N)N)C(=O)N[C@@H](CCCN=C(N)N)C(=O)N[C@@H](CCCN=C(N)N)C(=O)O)[C@@H](C)CC", "note": "[HHIIGGLFSAGKAIHRLIRRRRR]", "values": [{"measurement": "MIC", "setting": "[21]", "value": 47, "unit": "µM"}, {"measurement": "MIC", "setting": "[19]", "value": 188, "unit": "µM"}, {"measurement": "MIC", "setting": "[22]", "value": "≥ 188", "unit": "µM"}, {"measurement": "MIC", "setting": "[23]", "value": "≥ 188", "unit": "µM"}]}, {"smiles": "CC[C@H](C)[C@H](NC(=O)[C@H](CCCCN)NC(=O)[C@@H](N)CCCN=C(N)N)C(=O)N[C@@H](CCCN=C(N)N)C(=O)N[C@@H](CCCN=C(N)N)C(=O)N[C@@H](CCCCN)C(=O)N[C@@H](Cc1c[nH]c2ccccc12)C(=O)N[C@@H](CCCCN)C(=O)N[C@@H](CCCN=C(N)N)C(N)=O", "note": "[RKIRRKWKR]", "values": [{"measurement": "MIC", "setting": "[17]", "value": "> 37.7", "unit": "µM"}, {"measurement": "MIC", "setting": "[24]", "value": "> 37.7", "unit": "µM"}, {"measurement": "MIC", "setting": "[25]", "value": "≥ 37.7", "unit": "µM"}, {"measurement": "MIC", "setting": "[26]", "value": "≥ 37.7", "unit": "µM"}, {"measurement": "MIC", "setting": "[27]", "value": "> 37.7", "unit": "µM"}, {"measurement": "MIC", "setting": "[20]", "value": "> 37.7", "unit": "µM"}, {"measurement": "MIC", "setting": "[28]", "value": "≥ 37.7", "unit": "µM"}]}]}
